PubChem BioAssay AID1963976 (Molecular Pharmacology Branch, DTP, NCI, 2024)

Test system: 435261-313-R-J1-PDC tumor spheroid viability
Assay: Anticancer human tumor 435261-313-R-J1-PDC patient-derived colon adenocarcinoma cell line growth inhibition [PI3K]
Details: spheroids with HUVEC and MSC; for IC50: curve of first compound; for viability, T/C: stronger effect = lower value; active = viability on the fitted dose curve at most 10% of control; inactive = the rest
Summary of the method: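 Three cell types, namely tumor cells, endothelial cells and mesenchymal stem cells, formed each spheroid. Combinations with four PI3K inhibitors were screened at clinically achievable concentrations decreasing by half-log, and spheroid viability was recorded.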

[1] = second compound 0.00316 µM, first compound 0.0316 µM
[2] = second compound 0.00316 µM, first compound 0.1 µM
[3] = second compound 0.00316 µM, first compound 0.316 µM
[4] = second compound 0.00316 µM, first compound 1 µM
[5] = second compound 0.00316 µM, first compound 3.16 µM
[6] = second compound 0.00316 µM, first compound 10 µM
[7] = second compound 0.01 µM, first compound 0.0316 µM
[8] = second compound 0.01 µM, first compound 0.1 µM
[9] = second compound 0.01 µM, first compound 0.316 µM
[10] = second compound 0.01 µM, first compound 1 µM
[11] = second compound 0.01 µM, first compound 3.16 µM
[12] = second compound 0.01 µM, first compound 10 µM
[13] = second compound 0.0316 µM, first compound 0.0316 µM
[14] = second compound 0.0316 µM, first compound 0.1 µM
[15] = second compound 0.0316 µM, first compound 0.316 µM
[16] = second compound 0.0316 µM, first compound 1 µM
[17] = second compound 0.0316 µM, first compound 3.16 µM
[18] = second compound 0.0316 µM, first compound 10 µM
[19] = second compound 0.1 µM, first compound 0.0316 µM
[20] = second compound 0.1 µM, first compound 0.1 µM
[21] = second compound 0.1 µM, first compound 0.316 µM
[22] = second compound 0.1 µM, first compound 1 µM
[23] = second compound 0.1 µM, first compound 3.16 µM
[24] = second compound 0.1 µM, first compound 10 µM
[25] = second compound 0.316 µM, first compound 0.0316 µM
[26] = second compound 0.316 µM, first compound 0.1 µM
[27] = second compound 0.316 µM, first compound 0.316 µM
[28] = second compound 0.316 µM, first compound 1 µM
[29] = second compound 0.316 µM, first compound 3.16 µM
[30] = second compound 0.316 µM, first compound 10 µM
[31] = second compound 1 µM, first compound 0.0316 µM
[32] = second compound 1 µM, first compound 0.1 µM
[33] = second compound 1 µM, first compound 0.316 µM
[34] = second compound 1 µM, first compound 1 µM
[35] = second compound 1 µM, first compound 3.16 µM
[36] = second compound 1 µM, first compound 10 µM
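Note: spheroids exposed to compounds for 7 days.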

CCCS(=O)(=O)Nc1ccc(F)c(C(=O)c2c[nH]c3ncc(-c4ccc(Cl)cc4)cc23)c1F + COc1c(OCCCN2CCOCC2)ccc2c3n(c(=NC(=O)c4cnc(N)nc4)nc12)CCN3
active: viability, T/C [6] 4.06% | viability, T/C [12] 4.19% | viability, T/C [25] 7.13% | viability, T/C [26] 9.16% | viability, T/C [27] 10.6% | viability, T/C [28] 13.5% | viability, T/C [29] 13.9% | viability, T/C [30] 4.25% | viability, T/C [31] 4.51% | viability, T/C [32] 3.63% | viability, T/C [33] 4.99% | viability, T/C [34] 5.37% | viability, T/C [35] 7.06% | viability, T/C [36] 2.69%
inactive: viability, T/C [1] 66.6% | viability, T/C [2] 77.1% | viability, T/C [3] 103% | viability, T/C [4] 83.7% | viability, T/C [5] 72.4% | viability, T/C [7] 46.7% | viability, T/C [8] 71.3% | viability, T/C [9] 70.8% | viability, T/C [10] 91.2% | viability, T/C [11] 49.1% | viability, T/C [13] 25.7% | viability, T/C [14] 40.4% | viability, T/C [15] 27.9% | viability, T/C [16] 33.9% | viability, T/C [17] 31.7% | viability, T/C [18] 5.4% | viability, T/C [19] 24.7% | viability, T/C [20] 18.1% | viability, T/C [21] 22% | viability, T/C [22] 26.3% | viability, T/C [23] 22.1% | viability, T/C [24] 4.42%
3020 nM: IC50 (second compound 0.01 µM)
< 31.6 nM: IC50 (second compound 0.0316 µM) | IC50 (second compound 0.1 µM) | IC50 (second compound 0.316 µM) | IC50 (second compound 1 µM)
4610 nM: IC50 (second compound 0.00316 µM)

C=CC(=O)N1CCN(c2nc(=O)n(-c3c(C)ccnc3C(C)C)c3nc(-c4c(O)cccc4F)c(F)cc23)C(C)C1 (centres undefined) + CC(Nc1ccc2c(c1)OCCn1cc(N3C(=O)OCC3C(F)F)nc1-2)C(N)=O
inactive: viability, T/C [1] 83.2% | viability, T/C [2] 81.4% | viability, T/C [3] 111% | viability, T/C [4] 126% | viability, T/C [5] 117% | viability, T/C [6] 120% | viability, T/C [7] 99.2% | viability, T/C [8] 88.4% | viability, T/C [9] 95.1% | viability, T/C [10] 89.5% | viability, T/C [11] 91.7% | viability, T/C [12] 111% | viability, T/C [13] 70.7% | viability, T/C [14] 78.6% | viability, T/C [15] 71.5% | viability, T/C [16] 70.2% | viability, T/C [17] 87.4% | viability, T/C [18] 101% | viability, T/C [19] 49.7% | viability, T/C [20] 42.6% | viability, T/C [21] 45.5% | viability, T/C [22] 37.9% | viability, T/C [23] 60.9% | viability, T/C [24] 54.5% | viability, T/C [25] 20.8% | viability, T/C [26] 22% | viability, T/C [27] 27% | viability, T/C [28] 22.8% | viability, T/C [29] 25.5% | viability, T/C [30] 21.1% | viability, T/C [31] 20.2% | viability, T/C [32] 16.5% | viability, T/C [33] 18.1% | viability, T/C [34] 20.4% | viability, T/C [35] 14.9% | viability, T/C [36] 17.9%
< 31.6 nM: IC50 (second compound 0.1 µM) | IC50 (second compound 0.316 µM) | IC50 (second compound 1 µM)
> 10000 nM: IC50 (second compound 0.00316 µM) | IC50 (second compound 0.01 µM) | IC50 (second compound 0.0316 µM)
